# Reference: patent US20170049725A9, “COMBINATION CANCER TREATMENT” (WISCONSIN ALUMNI RESEARCH FOUNDATION, priority 2014, published 2017)
# Entries after “also recorded” stand apart in the source; their conditions may differ.
# Experiments:
# [1] = tested on: TRAIL-R1 mRNA in GILM2 cells; test: TRAIL receptor mRNA levels by real-time PCR; assay type: cell-based, Human; settings: 5 mM metformin for 72 hours, normalized to control media
# Description: GILM2 breast cancer cells were cultured in control media or media containing 5 mM metformin (MF) for 72 hours, and total RNA was then isolated. TRAIL-R2 and TRAIL-R1 mRNA levels were measured by real-time PCR and normalized to expression in GILM2 cells grown in control media.
# To determine whether metformin sensitizes cancer cells to TRAIL by increasing the expression of its proapoptotic receptors (TRAIL-R1 and TRAIL-R2), GILM2 cells were treated with metformin for 72 hours, and then TRAIL receptor mRNA levels were measured by real-time PCR.
# [2] = tested on: caspase-3 and PARP in GILM2 carcinoma cells; test: Immunoblotting of caspase activation (procaspase-3, PARP); assay type: cell-based, Human; settings: metformin 5 mM 48 hours, then TRAIL 1.5 μg/ml 16 hours
# [3] = tested on: caspase-3 and PARP in HT29 carcinoma cells; test: as above; assay type: cell-based, Human; settings: metformin 5 mM 48 hours, then TRAIL 1.5 μg/ml 16 hours
# [4] = tested on: transformed MCF-10A-RasV12 cells; test: MTS cell viability assay; assay type: cell-based, Human
# Description: (§5) Untransformed MCF-10A-Vector and transformed MCF-10A-RasV12 cells were untreated or preincubated with metformin (MF, 5 mM) for 48 hours and then treated with TRAIL (1.5 μg/ml), mapatumumab (1.5 μg/ml), or lexatumumab (1.5 μg/ml) for an additional 24 hours. Cell viability was determined by MTS assay and expressed as fold-change relative to untreated controls. **P<0.01 or ***P<0.001 versus controls.
# (§6) Cell viability assay: An MTS cell viability assay was performed as known in the art. Briefly, cells were plated overnight in 96-well plates (3×10^3 cells/well). Cells were then untreated or preincubated with metformin (5 mM) for 48 hours before adding lexatumumab (1.5 μg/ml), mapatumumab (1.5 μg/ml) or TRAIL (1.5 μg/ml). Cell viability was assessed 24 hours later. Cell viability was determined in triplicate wells and expressed as the fold-change relative to untreated controls.
# [5] = tested on: caspase-3 and PARP in MCF-10A-RasV12 cells; test: Immunoblotting of caspase activation (procaspase-3, PARP); assay type: cell-based, Human; settings: metformin 5 mM 48 hours, then TRAIL 1.5 μg/ml 16 hours
# [6] = tested on: GILM2 breast carcinoma cells; test: MTS cell viability assay
# Description: (§7) Human GILM2, HT29 and DU145 carcinoma cells were untreated or preincubated with metformin (MF, 5 mM) for 48 hours and then treated with TRAIL (1.5 μg/ml), mapatumumab (1.5 μg/ml), or lexatumumab (1.5 μg/ml) for an additional 24 hours. Cell viability was determined by MTS assay and expressed as fold-change relative to untreated controls. *P<0.05, **P<0.01 or ***P<0.001 versus controls.
# as §6
# [7] = tested on: XIAP in GILM2 breast cancer cells; test: Immunoblot of XIAP expression; assay type: cell-based, Human; settings: 5 mM metformin for 72 hours
# Description: (§1) Immunoblot of XIAP expression in MDA-MB-231, GILM2 and MDA-MB-468 breast cancer cell lines grown in control media (V) or media containing 5 mM metformin (MF) for 72 hours.
# (§2) Without being held to theory, it was postulated that metformin might sensitize cancer cells to TRAIL by downregulating XIAP.
# HT29 colon cancer cells = test: MTS cell viability assay
# Description: as §7, §6
# [8] = tested on: DU145 prostate carcinoma cells; test: MTS cell viability assay
# Description: as §7, §6
# [9] = tested on: caspase-3 and PARP in DU145 carcinoma cells; test: Immunoblotting of caspase activation (procaspase-3, PARP); assay type: cell-based, Human; settings: metformin 5 mM 48 hours, then TRAIL 1.5 μg/ml 16 hours
# [10] = tested on: transformed MCF-10A-RasV12 cells; test: Crystal violet cell survival assay; assay type: cell-based, Human; settings: metformin 5 mM 48 hours preincubation
# Description: (§3) Top panel: representative images.
# (§4) Crystal violet cell survival assay: Cells were seeded overnight on 6-well plates (3×10^5 cells/well). […] Surviving cells were fixed and stained with crystal violet as described in the art. The percentage of cell confluence was determined using NIH Image J software.
# [11] = tested on: untransformed MCF-10A-Vector cells; test: Crystal violet cell survival assay; assay type: cell-based, Human; settings: metformin 5 mM
# Description: as §3, §4
# TRAIL-R1 on GILM2 cells = test: Cell surface expression of TRAIL receptors by flow cytometry; assay type: cell-based, Human; settings: 5 mM metformin for 72 hours
# Description: GILM2 cells were grown in control media or media containing 5 mM metformin for 72 hours, incubated with control IgG, TRAIL-R1 or TRAIL-R2 mAb, and analyzed by flow cytometry.
# To determine whether metformin enhances the cell surface expression of TRAIL receptors in cancer cells, GILM2 cells were treated with metformin for 72 hours, and the cell surface expression of TRAIL-R2 and TRAIL-R1 was determined by flow cytometry.
# [12] = tested on: XIAP in MDA-MB-231 breast cancer cells; test: Immunoblot of XIAP expression; assay type: cell-based; settings: 5 mM metformin for 72 hours
# Description: as §1, §2
# [13] = tested on: XIAP in MDA-MB-468 breast cancer cells; test: Immunoblot of XIAP expression; assay type: cell-based; settings: 5 mM metformin for 72 hours
# Description: as §1, §2
# [14] = tested on: untransformed MCF-10A-Vector cells; test: MTS cell viability assay; assay type: cell-based, Human; settings: metformin 5 mM or agonist 1.5 μg/ml alone
# Description: as §5, §6
# GILM2 cells = test: Crystal violet cell survival assay; settings: for cytotoxicity of agent alone (cell confluence of surviving cells): metformin 5 mM or agonist 1.5 μg/ml alone
# Description: as §3, §4
# [15] = tested on: GILM2-mCherry mammary tumors; test: Orthotopic model of metastatic triple-negative breast cancer; assay type: in vivo, female NSG mice; settings: NSG mice; TRAIL 10 mg/kg i.p. daily for two weeks; metformin 250 mg/mL in drinking water; alone or combined
# Description: GILM2-mCherry cells (1×10^6) were injected intraductally into both 4th mammary glands of female NOD scid IL2 receptor γ chain knockout (NSG) mice. Mice were randomized into 4 groups (10 mice per group): vehicle, TRAIL alone (10 mg/kg i.p. daily for two weeks), metformin alone (250 mg/mL in drinking water), or the combination of these doses of metformin and TRAIL. Mice were treated with metformin beginning three weeks after tumor inoculation and throughout the study; TRAIL treatment was initiated 3.5 weeks after tumor cell inoculation.
# To determine whether metformin augments the antitumor effects of TRAIL in an orthotopic model of metastatic triple-negative breast cancer, female NSG mice bearing established GILM2-mCherry mammary tumors were treated with vehicle, metformin alone, TRAIL alone or the combination of metformin and TRAIL.
# DU145 cells = test: Crystal violet cell survival assay; assay type: cell-based, Human
# Description: as §3
# HT29 cells = test: Crystal violet cell survival assay; assay type: cell-based, Human
# Description: as §3
# [16] = tested on: caspase-3 and PARP in MCF-10A-Vector cells; test: Immunoblotting of caspase activation (procaspase-3, PARP); assay type: cell-based, Human; settings: metformin 5 mM 48 hours, then TRAIL 1.5 μg/ml 16 hours
# [17] = tested on: metastatic breast cancer cells; settings: cited from earlier work
# [18] = metformin 5 mM 48 hours preincubation, then TRAIL 1.5 μg/ml 24 hours
# [19] = metformin 5 mM 48 hours preincubation, then lexatumumab 1.5 μg/ml 24 hours
# [20] = metformin 5 mM 48 hours preincubation, then mapatumumab 1.5 μg/ml 24 hours
# [21] = metformin 5 mM or agonist 1.5 μg/ml alone
compound,measurement,setting,value
"CN(C)C(=N)NC(=N)N [metformin, N,N-dimethylimidodicarbonimidic diamide]",TRAIL-R1 mRNA levels,[1],modestly reduced
same,TRAIL-induced proteolysis of the caspase substrate PARP,[2],increased
same,TRAIL-induced proteolytic activation of procaspase-3,[2],augmented
same,TRAIL-induced proteolysis of the caspase substrate PARP,[3],increased
same,TRAIL-induced proteolytic activation of procaspase-3,[3],augmented
same,sensitivity to TRAIL (cell viability),[4]; [18],enhanced the sensitivity
same,sensitivity to lexatumumab (cell viability),[4]; [19],enhanced the sensitivity
same,sensitivity to mapatumumab (cell viability),[4]; [20],not
same,"effect on cell viability, agent individually",[4]; [21],only modest effects
same,TRAIL-induced proteolytic cleavage of PARP,[5],enhanced
same,TRAIL-induced proteolytic cleavage of procaspase-3,[5],enhanced
same,sensitivity to TRAIL (cell viability),[6]; [18],enhanced the sensitivity
same,sensitivity to lexatumumab (cell viability),[6]; [19],enhanced the sensitivity
same,cytotoxicity of mapatumumab (cell viability),[6]; [20],did not augment the cytotoxicity
same,"effect on cell viability, agent individually",[6]; [21],modest or no significant effect
same,XIAP protein levels,[7],reduction
same,sensitivity to TRAIL (cell viability),HT29 colon cancer cells; [18],enhanced the sensitivity
same,sensitivity to lexatumumab (cell viability),HT29 colon cancer cells; [19],enhanced the sensitivity
same,cytotoxicity of mapatumumab (cell viability),HT29 colon cancer cells; [20],did not augment the cytotoxicity
same,"effect on cell viability, agent individually",HT29 colon cancer cells; [21],modest or no significant effect
same,sensitivity to TRAIL (cell viability),[8]; [18],enhanced the sensitivity
same,sensitivity to lexatumumab (cell viability),[8]; [19],enhanced the sensitivity
same,cytotoxicity of mapatumumab (cell viability),[8]; [20],did not augment the cytotoxicity
same,"effect on cell viability, agent individually",[8]; [21],modest or no significant effect
same,TRAIL-induced proteolysis of the caspase substrate PARP,[9],increased
same,TRAIL-induced proteolytic activation of procaspase-3,[9],augmented
same,sensitization to TRAIL (cell survival),[10]; then TRAIL 1.5 μg/ml 24 hours,dramatically sensitized
same,sensitization to lexatumumab (cell survival),[10]; then lexatumumab 1.5 μg/ml 24 hours,dramatically sensitized
same,effect on mapatumumab-induced cell death,[10]; then mapatumumab 1.5 μg/ml 24 hours,only a modest effect
same,effect of metformin alone on cell survival,[11],little effect
same,cell surface expression of TRAIL-R1,TRAIL-R1 on GILM2 cells,did not significantly affect
same,XIAP protein levels,[12],reduction
same,XIAP protein levels,[13],reduction
same,"effect on cell viability, agent individually",[14],largely resistant
same,cytotoxicity of TRAIL (cell confluence of surviving cells),GILM2 cells; [18],increased the cytoxicity
same,cytotoxicity of lexatumumab (cell confluence of surviving cells),GILM2 cells; [19],increased the cytoxicity
same,cytotoxicity of mapatumumab (cell confluence of surviving cells),GILM2 cells; [20],increased the cytoxicity; also recorded: more modest
same,cytotoxicity of agent alone (cell confluence of surviving cells),GILM2 cells,modest cytoxicity
same,lung metastases,[15],no significant effect
same,mammary tumor growth,[15],no significant effect
same,cytotoxicity of TRAIL (cell confluence of surviving cells),"DU145 cells; metformin 5 mM 48 hours preincubation, then TRAIL 1.5 μg/ml 48 hours",increased the cytoxicity
same,cytotoxicity of lexatumumab (cell confluence of surviving cells),"DU145 cells; metformin 5 mM 48 hours preincubation, then lexatumumab 1.5 μg/ml 48 hours",increased the cytoxicity
same,cytotoxicity of mapatumumab (cell confluence of surviving cells),"DU145 cells; metformin 5 mM 48 hours preincubation, then mapatumumab 1.5 μg/ml 48 hours",increased the cytoxicity
same,cytotoxicity of agent alone (cell confluence of surviving cells),DU145 cells; [21],modest cytoxicity
same,cytotoxicity of TRAIL (cell confluence of surviving cells),HT29 cells; [18],increased the cytoxicity
same,cytotoxicity of lexatumumab (cell confluence of surviving cells),HT29 cells; [19],increased the cytoxicity
same,cytotoxicity of mapatumumab (cell confluence of surviving cells),HT29 cells; [20],increased the cytoxicity; also recorded: more modest
same,cytotoxicity of agent alone (cell confluence of surviving cells),HT29 cells; [21],more robust cytotoxicity
same,TRAIL-induced proteolytic cleavage of PARP,[16],little effect
same,TRAIL-induced proteolytic cleavage of procaspase-3,[16],little effect
"TRAIL: Soluble recombinant TRAIL corresponding to amino acids 95-281 of the protein, expressed in bacteria, His-tagged",lung metastases,[15],inhibited
same,mammary tumor growth,[15],inhibited
lexatumumab: fully human IgG1 agonistic monoclonal antibody that binds TRAIL-R2/DR5,cytotoxicity of agent alone (cell confluence of surviving cells),GILM2 cells,modest cell death
same,"sensitivity to apoptosis induction, compared with mapatumumab",[17],more sensitive
